Laboratory results from paper PMC12298827, “Subchronic Toxicities of Four Per- and Polyfluoroalkyl Substances (PFASs) by Oral Exposure in Sprague–Dawley Rats” (Toxics, 2025).

System: male and female Sprague–Dawley rats
Assay: 90-day subchronic oral gavage toxicity study
Assay type: in vivo, rat
Design: key to NOEL, absolute liver weight increase / LOEL, absolute liver weight increase / NOEL, relative kidney weight increase / LOEL, relative kidney weight increase / NOEL, absolute kidney weight increase / LOEL, absolute kidney weight increase / NOEL, relative liver weight increase / LOEL, relative liver weight increase: NR: no response, no statistically significant dose-dependent changes
Method: Subchronic (90-day) studies were performed in accordance with current U.S. EPA’s Toxic Substances Control Act Good Laboratory Practice (GLP) Standards, with the following two general exceptions to the GLP guidelines: Analysis of the dose formulations was conducted according to RTI-approved Standard Operating Procedures, and corn oil (the vehicle) was not characterized (certificate of analysis from the vendor is available in the appendices to the final reports). Male and female Sprague–Dawley rats (five dose levels plus a control, n = 10/sex/dose group, corn oil vehicle dose volume of 3 mL/kg; oral gavage) were used in these studies, and the rats were euthanized on SD 91. The dose levels for PFHI were 0, 12.5, 25, 50, 100, and 200 mg/kg-day. The dose levels for MHFPK were 0, 18.8, 37.5, 75, 150, and 300 mg/kg-day. The dose levels for PFNAC were 0, 0.1, 0.3, 1.0, 3.0, and 10 mg/kg-day for male rats and 0, 0.3, 1.0, 3.0, 10, and 30 mg/kg-day for female rats. For CTFPA, the dose levels were 0, 1.9, 3.8. 7.5, 15, and 30 mg/kg-day for male rats and 0, 6.3, 12.5, 25, 50, and 100 mg/kg-day for female rats. For each PFAS, three batches of dosing solution were prepared. The time between the batch preparation of the dosing solutions ranged between 29 and 39 days. Blood samples were collected from all the rats at termination for serum chemistry, hematology, coagulation, and the analysis of the parent PFAS chemical in the plasma. In vivo data collection and further detail on the endpoints examined postmortem are described below.
The rats were observed twice daily for morbidity and mortality throughout the study period. At least once prior to randomization to test groups and weekly thereafter, the rats were physically examined, and bodyweights were obtained. Feed consumption was quantified weekly starting on SD 1.
Neurotoxicity was evaluated using the functional observational battery (FOB) and measuring locomotor activity (LMA) 2–4 h post dosing on SDs 78–80 and 80–84, respectively. For both the 14- and 90-day studies, an ophthalmologic examination was conducted prior to randomization and near the end of the study, using indirect ophthalmoscopy and slit–lamp biomicroscopy (as needed) after the administration of a mydriatic solution.
Hematology, biochemistry, and coagulation endpoints were measured at the termination of the study. A Siemens Advia 2120i hematology analyzer (Siemens Healthineers, Erlangen, Germany) was used to measure (or calculate) the parameters related to the complete blood count, leukocyte differential count, and reticulocyte count. The hematology parameters are listed and described in Table 2. The prothrombin time […] and activated partial thromboplastin time (APTT) were measured using an Instrumentation Laboratory (Bedford, MA, USA) ACL Elite Pro coagulation analyzer (laser–nephelometric centrifugal method).
At necropsy, the rats were visually examined for external abnormalities and organ weights (absolute and relative to the BW and brain weight), which were recorded (paired organs weighed together). The tissues were preserved in 10% neutral buffered formalin (NBF), except for the ocular tissues, testes, and epididymides, which were preserved in modified Davidson’s fixative and later transferred to 10% NBF. Bone marrow smears were prepared from the femurs, and the slides were air-dried, fixed in methanol, stained, and stored at room temperature for possible future evaluation. The preserved tissues were embedded in paraffin, sectioned, stained with hematoxylin and eosin, and examined by a board-certified veterinary pathologist.
Statistical analysis was performed using Provantis™ Version 10 or greater (Instem LSS, Limited; Stone, Staffordshire, UK). Differences among the treatment groups compared to the control were evaluated using one-way analysis of variance (ANOVA) if the underlying assumptions of a normal distribution (Shapiro–Wilk test) and the homogeneity of the variance (Levene’s test) were satisfied. […]

O=C(O)C(F)(Cl)C(F)(F)F (stereo not shown) [CTFPA, 2-Chloro-2,3,3,3-tetrafluoropropanoic acid]
Bodyweight (BW) and bodyweight gain (90-day, both sexes, all doses): None CTPFA related | Clinical chemistry (90-day, both sexes, all doses): From minimal to mild increases in albumin and the A/G ratio in males at ≥7.5 mg/kg-day and in females at ≥50 mg/kg; only in males—from minimal to mild decreases in globulin at ≥7.5 mg/kg-day; from minimal to mild increases in ALPi at ≥7.5 mg/kg-day, and minimally increased BUN at 30 mg/kg-day | Clinical observations (90-day, both sexes, all doses): None | Coagulation endpoints (90-day, both sexes, all doses): From minimal to mild dose-dependent decreased APTT in males at ≥3.8 mg/kg; no effect in females | Feed consumption (90-day, both sexes, all doses): Significant non-adverse increases in males at ≥3.8 mg/kg-day; minor effects in females, not considered as CTFPA related | Functional observational battery (90-day, both sexes, all doses): No changes | Gross lesions (90-day, both sexes, all doses): None considered as CTFPA related | Hematology (90-day, both sexes, all doses): From minimal to mild decreases in red cell mass (RBC, HCT, and HGB) and increases in RDW in males at ≥7.5 mg/kg-day; no similar effect in females; from minimal to mild increased MPV in males at ≥3.8 mg/kg-day and in females at ≥50 mg/kg-day | Histopathology (90-day, both sexes, all doses): The liver of males and females; the heart and nasal turbinates of males | Locomotor activity (90-day, both sexes, all doses): No effects | Morbidity and mortality (90-day, both sexes, all doses): None | Ophthalmology (90-day, both sexes, all doses): No ocular lesions | Organ weight changes (90-day, both sexes, all doses): Mean absolute and/or relative liver weight increases in males at ≥3.8 mg/kg-day and in females at ≥25 mg/kg-day ^6; mean thymus weights increased in males at ≥15 mg/kg-day; mean kidney weights increased in females at ≥50 mg/kg-day | BMD10, absolute liver weight increase (female): 13.6 mg/kg-day | BMDL, absolute liver weight increase (female): 5.1 mg/kg-day | LOEL, absolute kidney weight increase (female): NR | LOEL, absolute liver weight increase (female): 25 mg/kg-day | LOEL, relative kidney weight increase (female): NR | LOEL, relative liver weight increase (female): 25 mg/kg-day | NOEL, absolute kidney weight increase (female): NR | NOEL, absolute liver weight increase (female): 12.5 mg/kg-day | NOEL, relative kidney weight increase (female): NR | NOEL, relative liver weight increase (female): 12.5 mg/kg-day | A/G (female, 1.9 mg/kg-day): 1.10±0.09 ratio | ALB (female, 1.9 mg/kg-day): 4.07 ± 0.31 g/dL | ALPi (female, 1.9 mg/kg-day): 49.7±22.7 U/L | BUN (female, 1.9 mg/kg-day): 16.4 ± 3.6 mg/dL | CHOL (female, 1.9 mg/kg-day): 94.7 ± 23.9 mg/dL | GLOB (female, 1.9 mg/kg-day): 3.69 ± 0.19 g/dL | GLUC (female, 1.9 mg/kg-day): 140.7 ± 21.5 mg/dL | A/G (female, 3.8 mg/kg-day): 1.17±0.10 ratio | ALB (female, 3.8 mg/kg-day): 4.41 ± 0.33 g/dL | ALPi (female, 3.8 mg/kg-day): 56.6±19.8 U/L | BUN (female, 3.8 mg/kg-day): 16.5 ± 3.0 mg/dL | CHOL (female, 3.8 mg/kg-day): 95.9 ± 14.5 mg/dL | GLOB (female, 3.8 mg/kg-day): 3.78 ± 0.20 g/dL | GLUC (female, 3.8 mg/kg-day): 133.0 ± 25.5 mg/dL | % BW Gain (female, 6.3 mg/kg-day): 59.29% | % Diff, % BW Gain (female, 6.3 mg/kg-day): 12.55% | % Diff, Total BW change (female, 6.3 mg/kg-day): 13.40% | % Diff, Total Food Consumed (female, 6.3 mg/kg-day): 8.28% | APTT (female, 6.3 mg/kg-day): 17.76 s | HCT (female, 6.3 mg/kg-day): 47.57±2.23% | HGB (female, 6.3 mg/kg-day): 15.03 ± 0.80 g/dL | Kidney Weight (female, 6.3 mg/kg-day): 1.91 g | Kidney/Body Weight (female, 6.3 mg/kg-day): 0.57% | Kidney/Brain Weight (female, 6.3 mg/kg-day): 95.5% | Liver Weight (female, 6.3 mg/kg-day): 8.76 g | Liver/Body Weight (female, 6.3 mg/kg-day): 2.59% | Liver/Brain Weight (female, 6.3 mg/kg-day): 437% | MPV (female, 6.3 mg/kg-day): 7.57 ± 0.49 fL | PT (female, 6.3 mg/kg-day): 14.58 s | Total BW change (female, 6.3 mg/kg-day): 129.35 g | Total Food Consumed (female, 6.3 mg/kg-day): 1671 g | A/G (female, 7.5 mg/kg-day): 1.18±0.14 ratio | ALB (female, 7.5 mg/kg-day): 4.36 ± 0.42 g/dL | ALPi (female, 7.5 mg/kg-day): 54.6±16.8 U/L | BUN (female, 7.5 mg/kg-day): 16.4 ± 2.4 mg/dL | CHOL (female, 7.5 mg/kg-day): 98.2 ± 26.4 mg/dL | GLOB (female, 7.5 mg/kg-day): 3.70 ± 0.28 g/dL | GLUC (female, 7.5 mg/kg-day): 143.6 ± 21.3 mg/dL | % BW Gain (female, 12.5 mg/kg-day): 56.17% | % Diff, % BW Gain (female, 12.5 mg/kg-day): 6.64% | % Diff, Total BW change (female, 12.5 mg/kg-day): 5.12% | % Diff, Total Food Consumed (female, 12.5 mg/kg-day): 1.02% | APTT (female, 12.5 mg/kg-day): 16.20 s | HCT (female, 12.5 mg/kg-day): 45.99±2.31% | HGB (female, 12.5 mg/kg-day): 14.52 ± 0.79 g/dL | Kidney Weight (female, 12.5 mg/kg-day): 1.97 g | Kidney/Body Weight (female, 12.5 mg/kg-day): 0.60% | Kidney/Brain Weight (female, 12.5 mg/kg-day): 93.7% | Liver Weight (female, 12.5 mg/kg-day): 8.97 g | Liver/Body Weight (female, 12.5 mg/kg-day): 2.71% | Liver/Brain Weight (female, 12.5 mg/kg-day): 428% | MPV (female, 12.5 mg/kg-day): 8.00 ± 0.97 fL | PT (female, 12.5 mg/kg-day): 14.17 s | Total BW change (female, 12.5 mg/kg-day): 119.91 g | Total Food Consumed (female, 12.5 mg/kg-day): 1559 g | A/G (female, 15 mg/kg-day): 1.19±0.08 ratio | ALB (female, 15 mg/kg-day): 4.46 ± 0.44 g/dL | ALPi (female, 15 mg/kg-day): 57.7±20.2 U/L | BUN (female, 15 mg/kg-day): 16.3 ± 2.3 mg/dL | CHOL (female, 15 mg/kg-day): 96.5 ± 26.2 mg/dL | GLOB (female, 15 mg/kg-day): 3.73 ± 0.20 g/dL | GLUC (female, 15 mg/kg-day): 154.6 ± 21.6 mg/dL | % BW Gain (female, 25 mg/kg-day): 53.36% | % Diff, % BW Gain (female, 25 mg/kg-day): 1.29% | % Diff, Total BW change (female, 25 mg/kg-day): 1.52% | % Diff, Total Food Consumed (female, 25 mg/kg-day): 2.96% | APTT (female, 25 mg/kg-day): 21.82 s | HCT (female, 25 mg/kg-day): 46.61±2.96% | HGB (female, 25 mg/kg-day): 14.62 ± 1.04 g/dL | Kidney Weight (female, 25 mg/kg-day): 1.97 g | Kidney/Body Weight (female, 25 mg/kg-day): 0.60% | Kidney/Brain Weight (female, 25 mg/kg-day): 95.0% | Liver Weight (female, 25 mg/kg-day): 9.97 g | Liver/Body Weight (female, 25 mg/kg-day): 3.02% | Liver/Brain Weight (female, 25 mg/kg-day): 483% | MPV (female, 25 mg/kg-day): 7.65 ± 0.50 fL | PT (female, 25 mg/kg-day): 14.34 s | Total BW change (female, 25 mg/kg-day): 115.80 g | Total Food Consumed (female, 25 mg/kg-day): 1589 g | A/G (female, 30 mg/kg-day): 1.22±0.07 ratio | ALB (female, 30 mg/kg-day): 4.62 ± 0.45 g/dL | ALPi (female, 30 mg/kg-day): 74.1±17.5 U/L | BUN (female, 30 mg/kg-day): 18.3 ± 2.5 mg/dL | CHOL (female, 30 mg/kg-day): 101.9 ± 15.8 mg/dL | GLOB (female, 30 mg/kg-day): 3.77 ± 0.25 g/dL | GLUC (female, 30 mg/kg-day): 153.4 ± 21.2 mg/dL | % BW Gain (female, 50 mg/kg-day): 51.94% | % Diff, % BW Gain (female, 50 mg/kg-day): -1.40% | % Diff, Total BW change (female, 50 mg/kg-day): -0.34% | % Diff, Total Food Consumed (female, 50 mg/kg-day): 2.22% | APTT (female, 50 mg/kg-day): 17.22 s | HCT (female, 50 mg/kg-day): 45.75±1.73% | HGB (female, 50 mg/kg-day): 14.30 ± 0.57 g/dL | Kidney Weight (female, 50 mg/kg-day): 2.07 g | Kidney/Body Weight (female, 50 mg/kg-day): 0.63% | Kidney/Brain Weight (female, 50 mg/kg-day): 102% | Liver Weight (female, 50 mg/kg-day): 10.49 g | Liver/Body Weight (female, 50 mg/kg-day): 3.21% | Liver/Brain Weight (female, 50 mg/kg-day): 520% | MPV (female, 50 mg/kg-day): 8.10 ± 0.46 fL | PT (female, 50 mg/kg-day): 14.57 s | Total BW change (female, 50 mg/kg-day): 113.68 g | Total Food Consumed (female, 50 mg/kg-day): 1577 g | % BW Gain (female, 100 mg/kg-day): 49.85% | % Diff, % BW Gain (female, 100 mg/kg-day): -5.37% | % Diff, Total BW change (female, 100 mg/kg-day): -5.90% | % Diff, Total Food Consumed (female, 100 mg/kg-day): 4.68% | APTT (female, 100 mg/kg-day): 21.23 s | HCT (female, 100 mg/kg-day): 46.76±2.13% | HGB (female, 100 mg/kg-day): 14.60 ± 0.66 g/dL | Kidney Weight (female, 100 mg/kg-day): 2.05 g | Kidney/Body Weight (female, 100 mg/kg-day): 0.65% | Kidney/Brain Weight (female, 100 mg/kg-day): 104%
